From ChEMBL document CHEMBL5620383, “Advances in CD73 inhibitors for immunotherapy: Antibodies, synthetic small molecule compounds, and natural compounds” (Eur J Med Chem, 2023) come the findings set out here.

Assay [1] concerns the target T1, 5'-nucleotidase (Homo sapiens, UniProt P21589). The assay can be described thus: Binding affinity to human recombinant CD73 assessed as inhibition constant.
Assay [2] has as its target T1, 5'-nucleotidase. As to the kind of experiment: Binding affinity to human recombinant CD73 expressed in Sf9 cells assessed as inhibition constant by malachite green based spectrophotometer assay.
Assay [3] addresses T1, 5'-nucleotidase. As to the kind of experiment: Inhibition of C-terminal 6His-tagged human recombinant CD73 expressed in CHO cells incubated for 1 hr by malachite green based spectrophotometer assay. The assay is classed as cell-based.
For assay [4], the target named is T1, 5'-nucleotidase. As to the kind of experiment: Inhibition of human recombinant CD73 (27 to 549 residues) expressed in Sf9 cells.
The target in assay [5] is T1, 5'-nucleotidase. The assay can be described thus: Inhibition of CD73 (unknown origin).
A short description of assay [6]: Reversal of adenosine induced reduction in IFNgamma production in human PBMC cells. The assay is classed as functional, cell-based.
For a further assay, the species on record is Homo sapiens. The assay can be described thus: Inhibition of adenosine transporter (unknown origin) at 20 uM relative to control.
A further assay relates to 4T1. The assay can be described thus: Inhibition of cell migration in mouse 4T1 cells at 10 uM incubated for 48 hrs by Transwell assay. Type of assay: functional. On the set-up: scale not given: the % may be the effect or the level left.
Assay [7] concerns MDA-MB-231. The assay can be described thus: Inhibition of cell migration in human MDA-MB-231 cells at 10 uM incubated for 48 hrs by Transwell assay. The assay is classed as functional. Also noted: scale not given: the % may be the effect or the level left.
The target in assay [8] is T1, 5'-nucleotidase. As to the kind of experiment: Inhibition of human CD73 expressed in A-375 cells incubated for 15 mins by malachite green based spectrophotometer assay. The assay is classed as cell-based.
Assay [9] addresses T1, 5'-nucleotidase. The assay can be described thus: Binding affinity to CD73 (unknown origin) assessed as inhibition constant.
Assay [10] has as its target T1, 5'-nucleotidase. As to the kind of experiment: Inhibition of CD73 (unknown origin) at 20 uM relative to control.
Assay [11] relates to MDA-MB-231. As to the kind of experiment: Cytotoxicity against human MDA-MB-231 cells assessed as reduction in cell growth at 20 uM incubated for 48 hrs by CCK-8 assay relative to control. The assay is classed as functional. On the set-up: scale not given: the % may be the effect or the level left.

T1 sequence (P21589 whole entry): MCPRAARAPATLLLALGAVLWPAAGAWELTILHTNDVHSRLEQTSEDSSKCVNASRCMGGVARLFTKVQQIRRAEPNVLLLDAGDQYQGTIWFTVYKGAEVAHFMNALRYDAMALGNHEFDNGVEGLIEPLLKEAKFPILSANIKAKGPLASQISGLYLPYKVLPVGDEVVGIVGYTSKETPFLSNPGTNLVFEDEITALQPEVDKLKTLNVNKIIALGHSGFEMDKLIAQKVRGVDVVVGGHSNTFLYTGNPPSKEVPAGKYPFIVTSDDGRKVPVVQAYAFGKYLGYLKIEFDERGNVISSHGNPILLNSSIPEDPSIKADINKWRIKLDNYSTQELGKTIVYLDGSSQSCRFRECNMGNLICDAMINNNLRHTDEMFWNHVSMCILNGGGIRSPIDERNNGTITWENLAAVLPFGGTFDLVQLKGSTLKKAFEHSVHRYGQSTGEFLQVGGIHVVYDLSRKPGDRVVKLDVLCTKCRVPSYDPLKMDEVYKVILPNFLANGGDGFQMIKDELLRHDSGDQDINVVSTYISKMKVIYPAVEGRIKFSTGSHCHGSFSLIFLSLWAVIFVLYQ

As for `CN(Cc1ccccc1F)c1nc(Cl)nc2c1ncn2[C@@H]1O[C@H](COP(=O)(O)OP(=O)(O)O)[C@@H](O)[C@H]1O`, the Ki at 5'-nucleotidase [1] was found to be 0.318 nM.
Take `Cn1c(=O)n([C@@H]2O[C@H](COP(=O)(O)OP(=O)(O)O)[C@@H](O)[C@H]2O)cc/c1=N/Oc1ccccc1`: the Ki at 5'-nucleotidase [2] was determined as 10.1 nM.
Consider `O=P(O)(O)CP(=O)(O)CC(O)[C@H]1O[C@@H](n2ccnn2)[C@H](O)[C@@H]1O` (stereo not given in full), for which the IC50 on 5'-nucleotidase [3] and on 5'-nucleotidase [4] was 860 nM throughout.
On to `COC[C@](CO)(OC[C@H]1O[C@@H](n2ncc3c(NC4CCCC4)nc(Cl)nc32)[C@H](O)[C@@H]1O)P(=O)(O)O`, for which, at 5'-nucleotidase [3], the IC50 was 250 nM.
In turn, `C=C(C)[C@@H]1CC[C@]2(C(=O)O)CC[C@]3(C)[C@H](CC[C@@H]4[C@@]5(C)CC[C@H](OC(=O)c6c(F)c(F)c(F)c(F)c6F)C(C)(C)[C@@H]5CC[C@]43C)[C@@H]12` came in with an IC50 on 5'-nucleotidase [5] of 470 nM.
Regarding `O=P(O)(O)COC[C@H]1O[C@@H](n2ncc3c(N4CC5(CCc6ccccc65)C4)nc(Cl)nc32)[C@H](O)[C@@H]1O`, in [6], the EC50 came to 110 nM. In addition, the IC50 on 5'-nucleotidase [3] amounted to 50 nM.
Take `C=C[C@]1(C)C[C@@H](OC(=O)CSCCN(CC)CC)[C@]2(C)[C@H](C)CC[C@]3(CCC(=O)[C@H]32)[C@@H](C)[C@@H]1O` [TIAMULIN]: in the assay filed under Homo sapiens, the inhibition came to 85.7%. Also, the values for the Activity in the assay with 4T1 and with MDA-MB-231 [7] were 67.01% and 76.2%, respectively.
Turning to `Nc1ncnc2c1ncn2COCCOP(=O)(O)CP(=O)(O)O`, the Ki on 5'-nucleotidase [2] came out at 12600 nM.
`C=C(C)[C@@H]1CC[C@]2(C(=O)O)CC[C@]3(C)[C@H](CC[C@@H]4[C@@]5(C)CC[C@H](OC(=O)c6ccc(F)cc6)C(C)(C)[C@@H]5CC[C@]43C)[C@@H]12` registered an IC50 against 5'-nucleotidase [5] of 560 nM.
As for `Nc1ncnc2c1ncn2[C@@H]1O[C@H](COP(=O)(O)OP(=O)(O)O)[C@@H](O)[C@H]1O` [ADENOSINE DIPHOSPHATE], at 5'-nucleotidase [1], the Ki was found to be 88.4 nM. On 5'-nucleotidase [8], this molecule displayed an IC50 of 3.8 nM.
Consider `C=C(C)[C@@H]1CC[C@]2(C(=O)O)CC[C@]3(C)[C@H](CC[C@@H]4[C@@]5(C)CC[C@H](O)C(C)(C)[C@@H]5CC[C@]43C)[C@@H]12` [BETULINIC ACID], for which the Ki at 5'-nucleotidase [9] came out at 7800 nM.
Consider `CCN(CC)c1nc(Cl)nc2c1ncn2[C@@H]1O[C@H](COCP(=O)(O)OP(=O)(O)C(Br)(Br)P(=O)(O)O)[C@@H](O)[C@H]1O`, for which the Ki on 5'-nucleotidase [2] turned out to be 451 nM.
Regarding `C=C[C@]1(C)C[C@@H](OC(=O)CO)[C@]2(C)[C@H](C)CC[C@]3(CCC(=O)[C@H]32)[C@@H](C)[C@@H]1O`, on 5'-nucleotidase [10], the inhibition is 70%.
As to `C=C(C)[C@@H]1CC[C@]2(C(=O)O)CC[C@]3(C)[C@H](CC[C@@H]4[C@@]5(C)CC[C@H](OC(=O)c6ccc(F)c(F)c6)C(C)(C)[C@@H]5CC[C@]43C)[C@@H]12`, half-maximal inhibition on 5'-nucleotidase [5] (IC50) was put at 740 nM. In addition, in the assay with MDA-MB-231 [11], the Activity amounted to 87.59%.
